Laboratory results published in US9776149B2, “Compositions and methods for preparing nanoformulations and systems for nano-delivery using focused acoustics” (Covaris, Inc., priority 2010, dated 2017).
Each block holds one compound with its values, some of them ahead of it.

Legend:
[1] = Particle size of drug suspensions before and after focused acoustic processing (Malvern Mastersizer 2000 / Zetasizer Nano ZS-90); type: physicochemical
Excerpt: Particle size distributions of mixtures and/or nanoformulations described herein may be measured using dynamic laser light scattering, also called Photon correlation spectroscopy (e.g., using Malvern Zetasizer-S, Zetasizer Nano ZS-90 or Mastersizer 2000 instruments; Malvern Instruments Inc.; Southborough Mass.). The Malvern Zetasizer-S instrument was used to estimate average particle sizes with a 4 mW He—Ne laser operating at a wavelength of 633 nm and an avalanche photodiode detector (APD). The average size of particles in a mixture may be estimated as the mean hydrodynamic size. The particle size distribution may be estimated according to polydispersity index (PDI), which is known in the art as a measure of the tightness of a distribution. The average size of particles and the PDI of mixtures and nanoformulations discussed herein are calculated according to the International Standard on dynamic light scattering, ISO 13321.
Suspension mixtures were prepared in water (deionized and purified by a Barnstead water purification system), methyl cellulose (from Sigma Aldrich) and sodium lauryl sulfate (from Fisher Scientific) for Ibuprofen (from Spectrum Chemicals), Cinnarizine (from Spectrum Chemicals), Indomethacin (from Spectrum Chemicals) and Griseofulvin (from MP Bio). The initial particle sizes of these suspension mixtures was reduced subject to focused acoustic processing using a Covaris SF220 High Performance Formulation Processing System under 150 Watts of power. Particle size distributions were measured using a Malvern Zetasizer Nano ZS-90 in the nanometer particle size range and a Malvern Mastersizer 2000 in the micron particle size range.
Suspension mixtures included water, 0.5% methyl cellulose and 0.1% sodium lauryl sulfate for Ibuprofen, Cinnarizine, Indomethacin and Griseofulvin at 15 mg/mL for batches of 2 mL, 12 mL and 18 mL. The 2 mL, 12 mL and 18 mL batches were subject to focused acoustic processing for 5 minutes, 5 minutes and 10 minutes, respectively. […] The image 400 prior to exposure to the focused acoustics depicts particles that are substantially larger (e.g., 15-20×) than corresponding particles shown in the image 402 after treatment of the particles to the focused acoustics. Particle size results for each of the four compounds are provided in Table 1 (particle sizes are noted as d90 unless specified otherwise).
The concentration of Ibuprofen was then varied in respective suspensions at fixed volumes of 2 mL, 12 mL and 18 mL. […] For instance, after 10 minutes of focused acoustic processing, the percent difference of the greatest variation in d90 particle size (i.e., 39.53-34.04=5.49) between concentrations (i.e., for 1 mg/mL, 15 mg/mL and 100 mg/mL) as compared to the initial d90 particle size (i.e., 203.67) is less than 3%.
Suspension mixtures included water, 0.025% methyl cellulose and 0.1% sodium lauryl sulfate for Ibuprofen, Cinnarizine, Indomethacin and Griseofulvin at 5 mg/mL for 2 mL batches. Each batch was subject to focused acoustic processing for 15 minutes and 30 minutes, respectively. Table 3 lists the average particle size results for each of the four compounds. Within 15 minutes, nano-suspensions were generated with an average particle size ranging between 100 nm and 280 nm for each of the mixtures. Within 30 minutes, an average particle size range of between 20 nm and 97 nm was achieved.
Using a scale-up system and without changing the mechanical attributes of the particle size reduction process, the Ibuprofen suspension mixture was increased to 250 mL. The flow rate was set to 30 mL/min. […] Suspension aliquots were analyzed by HPLC using a stability-indicating method as a guide. […] Through 60 minutes of focused acoustic processing, the particle size distribution of the suspension was measured to have a relative standard deviation of 0.38%. […]

[2] = Homogeneity and chemical stability of 250 mL Ibuprofen suspension (sampling at different depths, HPLC); type: physicochemical
Method: Using a scale-up system and without changing the mechanical attributes of the particle size reduction process, the Ibuprofen suspension mixture was increased to 250 mL. The flow rate was set to 30 mL/min. […] Suspension aliquots were analyzed by HPLC using a stability-indicating method as a guide. […] Through 60 minutes of focused acoustic processing, the particle size distribution of the suspension was measured to have a relative standard deviation of 0.38%. […] FIG. 7 illustrates the results of such size reduction over time for d90 particle size 410, d50 particle size 412 and d10 particle size 414.

[3] = 15 mg/mL suspension, 2 mL, 5 min
[4] = 15 mg/mL suspension, 12 mL, 5 min
[5] = 15 mg/mL suspension, 18 mL, 10 min
[6] = 15 mg/mL suspension, Initial (before focused acoustic processing)
[7] = nano-suspension, 5 mg/mL, 2 mL batch, 15 min
[8] = nano-suspension, 5 mg/mL, 2 mL batch, 30 min
[9] = nano-suspension, 5 mg/mL, 2 mL batch, Initial
[10] = 1, 15 and 100 mg/mL, after 10 minutes of processing

- Particle size (d90) [1, 3]: 37.29 microns
- Particle size (d90) [1, 4]: 41.73 microns
- Particle size (d90) [1, 5]: 43.00 microns
- Particle size (d90) [1, 6]: 149.17 microns
- Average particle size ([1]; 250 mL scale-up, 1 hour of processing): 1 micron
- Average particle size ([1]; 250 mL scale-up, about 9 hours): approximately 200 nm
- Average particle size ([1]; 250 mL scale-up, starting): approximately 200 microns
- Average particle size [1, 7]: 280 nm
- Average particle size [1, 8]: 56.85 nm
- Average particle size [1, 9]: 149.17 microns
Structure (SMILES): C(=C\c1ccccc1)/CN1CCN(C(c2ccccc2)c2ccccc2)CC1 [Cinnarizine]

- Particle size (d90) [1, 3]: 16.86 microns
- Particle size (d90) [1, 4]: 31.45 microns
- Particle size (d90) [1, 5]: 31.01 microns
- Particle size (d90) [1, 6]: 44.45 microns
- Average particle size [1, 7]: 100 nm
- Average particle size [1, 8]: 90 nm
- Average particle size [1, 9]: 44.45 microns
Structure (SMILES): COC1=CC(=O)C[C@@H](C)[C@]12Oc1c(Cl)c(OC)cc(OC)c1C2=O [Griseofulvin]

Structure (SMILES): CC(C)Cc1ccc(C(C)C(=O)O)cc1 (stereo not drawn) [Ibuprofen]
- % of particles below 20 microns [1, 3]: (100% of particles
- Particle size (d90) [1, 3]: 12.55 microns
- % of particles below 40 microns [1, 4]: (97% of particles
- Particle size (d90) [1, 4]: 33.35 microns
- % of particles below 40 microns [1, 5]: (97% of particles
- Particle size (d90) [1, 5]: 39.53 microns
- % of particles above 40 microns ([1]; 15 mg/mL suspension, Initial): (97% of particles
- Particle size (d90) [1, 6]: 203.67 microns
- Particles prior to focused acoustics larger than particles after treatment (micrographs, FIG. 6) ([1]; 15 mg/mL, 50× magnification): 15-20 ×
- Greatest variation in d90 particle size between concentrations [1, 10]: 5.49
- Percent difference of greatest variation in d90 between concentrations compared to initial d90 [1, 10]: less than 3%
- Percentage of particles below 40 microns ([1]; 250 mL scale-up, 15 min): 90%
- d10 ([1]; 250 mL scale-up, 15 min): 6.805 microns
- d50 ([1]; 250 mL scale-up, 15 min): 21.701 microns
- d90 ([1]; 250 mL scale-up, 15 min): 39.726 microns
- Percentage of particles below 40 microns ([1]; 250 mL scale-up, 30 min): 93.57%
- d10 ([1]; 250 mL scale-up, 30 min): 6.023 microns
- d50 ([1]; 250 mL scale-up, 30 min): 19.055 microns
- d90 ([1]; 250 mL scale-up, 30 min): 36.328 microns
- Percentage of particles below 40 microns ([1]; 250 mL scale-up, 45 min): 98.31%
- d10 ([1]; 250 mL scale-up, 45 min): 3.583 microns
- d50 ([1]; 250 mL scale-up, 45 min): 16.167 microns
- d90 ([1]; 250 mL scale-up, 45 min): 31.091 microns
- Percentage of particles below 40 microns ([1]; 250 mL scale-up, 60 min): 98.39%
- d10 ([1]; 250 mL scale-up, 60 min): 3.351 microns
- d50 ([1]; 250 mL scale-up, 60 min): 14.843 microns
- d90 ([1]; 250 mL scale-up, 60 min): 28.005 microns
- Percentage of particles below 40 microns ([1]; 250 mL scale-up, Initial): 5%
- d10 ([1]; 250 mL scale-up, Initial): 50 microns
- d50 ([1]; 250 mL scale-up, Initial): 97.834 microns
- d90 ([1]; 250 mL scale-up, Initial): 203.67 microns
- Particle size (d90) ([1]; Table 2, 1 mg/mL, 2 mL, 5 min): 12.55 microns
- Particle size (d90) ([1]; Table 2, 1 mg/mL, 12 mL, 5 min): 33.35 microns
- Particle size (d90) ([1]; Table 2, 1 mg/mL, 18 mL, 10 min): 39.53 microns
- Particle size (d90) ([1]; Table 2, 1 mg/mL, Initial): 203.67 microns
- Particle size (d90) ([1]; Table 2, 15 mg/mL, 2 mL, 5 min): 19.03 microns
- Particle size (d90) ([1]; Table 2, 15 mg/mL, 12 mL, 5 min): 34.88 microns
- Particle size (d90) ([1]; Table 2, 15 mg/mL, 18 mL, 10 min): 34.04 microns
- Particle size (d90) ([1]; Table 2, 15 mg/mL, Initial): 203.67 microns
- Particle size (d90) ([1]; Table 2, 100 mg/mL, 2 mL, 5 min): 29.54 microns
- Particle size (d90) ([1]; Table 2, 100 mg/mL, 12 mL, 5 min): 37.78 microns
- Particle size (d90) ([1]; Table 2, 100 mg/mL, 18 mL, 10 min): 35.53 microns
- Particle size (d90) ([1]; Table 2, 100 mg/mL, Initial): 203.67 microns
- Average particle size [1, 7]: 110 nm
- Average particle size [1, 8]: 97 nm
- Average particle size [1, 9]: 203.67 microns
- Homogeneity of suspension ([2]; first measured time point of 15 minutes): homogeneous
- Chemical stability (impurity growth, HPLC) ([2]; over 60 minutes of processing): no impurity growth

- Particle size (d90) [1, 3]: 20.88 microns
- Particle size (d90) [1, 4]: 38.32 microns
- Particle size (d90) [1, 5]: 28.73 microns
- Particle size (d90) [1, 6]: 239.88 microns
- Average particle size ([1]; in water, after exposure to focused acoustic energy (FIG. 12)): approximately 5 microns
- Average particle size [1, 7]: 127.4 nm
- Average particle size [1, 8]: 20 nm
- Average particle size [1, 9]: 239.88 microns
Structure (SMILES): COc1ccc2c(c1)c(CC(=O)O)c(C)n2C(=O)c1ccc(Cl)cc1 [Indomethacin]

- Average particle size ([1]; 250 mL in water, no surfactant, 24 degrees C., in under 80 minutes): less than 10 microns
- Average particle size ([1]; 250 mL in water, no surfactant, before processing): over 200 microns
Structure (SMILES): O=c1c(O)c(-c2ccc(O)c(O)c2)oc2cc(O)cc(O)c12 [Quercetin]
